Laboratory results taken from US10167270B2, “Substituted quinazoline compounds and uses thereof for modulating glucocerebrosidase activity” (Northwestern University, priority 2015, dated 2019).
“Also recorded” adds a separate entry of the source. Like-named read-outs stand apart in the source and are kept apart here.

What was measured:
wild-type GCase [1] = molecular target: T1, wild-type GCase (Homo sapiens (Human), UniProt P04062); test: GCase enzyme activity assay (4MU-β-Glc, no taurocholate); type: biochemical
T1 sequence (P04062 40-536): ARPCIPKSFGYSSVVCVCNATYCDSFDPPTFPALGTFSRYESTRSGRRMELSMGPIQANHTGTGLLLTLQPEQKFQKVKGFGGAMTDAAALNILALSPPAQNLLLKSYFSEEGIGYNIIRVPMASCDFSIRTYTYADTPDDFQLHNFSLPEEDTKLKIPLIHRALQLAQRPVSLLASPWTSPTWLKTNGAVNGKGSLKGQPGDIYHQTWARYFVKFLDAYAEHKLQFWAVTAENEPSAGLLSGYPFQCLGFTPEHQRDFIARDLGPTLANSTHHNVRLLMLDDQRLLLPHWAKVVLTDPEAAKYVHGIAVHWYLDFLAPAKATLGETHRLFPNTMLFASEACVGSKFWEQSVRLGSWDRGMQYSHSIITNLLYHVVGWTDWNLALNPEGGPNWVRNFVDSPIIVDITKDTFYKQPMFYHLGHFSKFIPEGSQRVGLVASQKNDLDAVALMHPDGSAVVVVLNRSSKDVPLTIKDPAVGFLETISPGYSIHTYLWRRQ
Method: In previous studies, high concentrations of taurocholate (4-10 mM) were used to improve the signal in GCase enzyme activity assays^16,27,28. […] Here we describe our modifications of the substituents on the quinazoline ring.
4-Methylumbelliferyl β-D-glucopyranoside (4MU-β-Glc), 4-methylumbelliferyl α-D-glucopyranoside,4-methylumbelliferyl α-D-galactopyranoside, and buffer components were purchased from Sigma-Aldrich (St. Louis, Mo.). The recombinant wild-type GCase enzyme velaglucerase alfa (Vpriv®, Shire Human Genetic Therapies, Inc.), acid α-glucosidase enzyme alglucosidase alfa (Lumizyme®, Genzyme Corporation), α-galactosidase A enzyme agalsidase beta (Fabrazyme®, Genzyme Corporation) were used in activity assays. […] A solution of 1 M sodium hydroxide and 1 M glycine (pH 10) was used as the stop solution for all three enzyme activity assays.
The compounds in DMSO solution (0.5 μL/well) were transferred to a black 96-well plate (the final titration started from 100 μM, a 12 or 24-point 2-fold dilution series). […] After 5 min of incubation at room temperature, the enzyme reaction was initiated by the addition of blue substrate (4MU-13-Glc) (33 μL/well). The final concentration of the blue substrate was 1.5 mM. The blue substrate reaction was terminated by the addition of 33 μL/well stop solution (1 M NaOH and 1 M glycine mixture, pH 10) after 30 min of incubation at 37° C. […] The selected compounds were further assayed under pH 5.0 and pH 7.0 to evaluate their selectivity under various pH conditions.

acid α-glucosidase (GAA) = acid α-glucosidase (GAA) (Homo sapiens (Human), UniProt P10253); test: Enzyme selectivity assay, acid α-glucosidase; type: biochemical; conditions: up to 100 μM
Source text: (§1) Louis, Mo.). The recombinant wild-type GCase enzyme velaglucerase alfa ([…] Human Genetic Therapies, Inc.), acid α-glucosidase enzyme alglucosidase alfa (Lumizyme®, Genzyme Corporation), α-galactosidase A enzyme agalsidase beta (Fabrazyme®, Genzyme Corporation) were used in activity assays. […] The acid α-glucosidase and α-galactosidase A enzyme activity assay methods were similar to the GCase enzyme activity assay above with slight modifications.

wild-type GCase [2] = molecular target: T1, wild-type GCase; test: Fluorescence thermal shift analysis; type: binding
Source text: Compounds shown to act as pharmacological chaperones for GCase (or other lysosomal enzymes) also stabilize the enzyme against thermal denaturation. A fluorescent thermal shift assay was developed to evaluate the binding affinity of ligands with protein^30. […] The maximum thermal shift of these compounds corresponded to their inhibitory activity at pH 5.0.
A robotic pipeline in the High Throughput Analysis Laboratory (HTAL) was used for protein ligand screening by fluorescence thermal shift (FTS) analysis. The pipeline used a Mosquito robot (TTP Labtech) for protein dispensing and an Echo 550 (Labcyte) to add compounds. Thermal scanning coupled with fluorescence detection was performed on a real-time PCR machine CFX384 (Bio-Rad Laboratories). The assay was run in 384-well PCR plates, using 10 μL citric acid/K2HPO4 buffer (50 mM citric acid, 150 mM K2HPO4, pH 5.0) per well. The assay concentration for protein was 1 μM and that for Sypro Orange (Invitrogen) was 5×. Protein was premixed with Sypro Orange and dispensed to a plate first, and compounds were added. Final concentrations of compounds ranged from 0.5 to 200 μM. Then the plate was sealed with an optical seal, shaken, and centrifuged. The thermal scan was from 10 to 95° C. with a temperature ramp rate of 1.5° C./min. The fluorescence was recorded every 10 sec. Data analysis and report generation were performed using the in-house software excelFTS.

[3] = molecular target: T2, N370S mutant GCase in patient fibroblasts (Homo sapiens (Human), UniProt P04062, N370S); test: GCase protein level in N370S fibroblasts by Western blot; type: cell-based; conditions: 3 days treatment
T2 sequence (P04062 40-536 N409S): as the sequence (P04062 40-536) above, with N370S counted along it
Method: (§2) The N370S fibroblast cell line was obtained from Coriell, GM00372, cultured in DMEM medium (Life Tech) including 1% v/v L-glutamine 200 mM (Life Tech), 1% v/v pen strep (Life Tech), 10% FBS (Life Tech) at 37° C. and 5% CO2 and treated with different compounds at 0.2 μM and 2 μM. After a 3-day treatment, cells were washed with inhibitor free media 3 times and fed with inhibitor free media for 1 day, followed by 1% Triton X-100 lysis buffer to lyse cells. Protein concentrations were measured with a Bradford kit (Thermo), and the GCase activity was determined at pH 5.5.
Proteins were denatured in 20% SDS sample buffer at 100° C. for 10 min; 10% Bis-Tris gel (Life Tech) was used for gels; Trans-Blot Turbo PVDF kit (Bio-Rad) was used for membrane transfer, and Chemidoc MP system (Bio-Rad) was used to analyze the blots.

α-galactosidase A (GLA) = α-galactosidase A (GLA) (Homo sapiens (Human), UniProt P06280); test: Enzyme selectivity assay, α-galactosidase A; type: biochemical; conditions: up to 100 μM
α-galactosidase A (GLA), sequence (P06280 32-429): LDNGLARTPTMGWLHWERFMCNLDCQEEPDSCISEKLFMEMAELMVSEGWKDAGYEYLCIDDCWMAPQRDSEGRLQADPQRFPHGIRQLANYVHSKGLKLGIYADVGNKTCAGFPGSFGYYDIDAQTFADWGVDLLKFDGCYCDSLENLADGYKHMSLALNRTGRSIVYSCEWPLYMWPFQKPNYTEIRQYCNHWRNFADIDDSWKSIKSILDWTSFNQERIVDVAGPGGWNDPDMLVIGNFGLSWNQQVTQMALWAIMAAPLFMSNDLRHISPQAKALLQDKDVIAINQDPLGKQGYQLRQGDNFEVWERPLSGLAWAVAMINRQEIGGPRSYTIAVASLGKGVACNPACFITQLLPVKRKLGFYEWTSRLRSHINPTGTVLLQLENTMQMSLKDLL
Source text: as §1

[4] = molecular target: T2, N370S mutant GCase in patient fibroblasts; test: GCase activity in N370S fibroblasts after compound treatment; type: cell-based; conditions: 3-day treatment
Method: as §2

GCase = GCase (Homo sapiens (Human), UniProt P04062); test: Enzyme kinetic assay (resorufin β-D-glucopyranoside); type: biochemical; conditions: substrate 30-150 μM
GCase, sequence (P04062 40-536): as the sequence (P04062 40-536) above
Method: We further tested compounds 4 and 11g by measuring GCase activity at various substrate concentrations (30-150 μM) and in the absence or presence of increasing concentrations of GCase inhibitors.
The substrate resorufin β-D-glucopyranoside was diluted to five concentrations, ranging from 30 to 150 μM. Seven concentrations of inhibitors (between 0.5- and 5-fold of IC50 value) and a DMSO control were added to the enzyme solution. The final enzyme concentration was 10 nM to give a linear reaction over 10 min. Enzyme kinetics were measured by the addition of 66 μL of substrate to a 96-well assay plate, followed by 33 μL of enzyme solution (with or without inhibitor) using a dispense module on a Biotek Synergy H1 multi-mode plate reader. The increase in product fluorescence was measured at 1 min intervals for 10 min in the plate reader. The rate of product formation was calculated by converting the fluorescence units to nanomoles of product per minute using a standard curve of the free fluorophore, resorufin.

c1ccc2c(c1)CC(Nc1nc(-c3ccsc3)nc3ccccc13)C2 [Compound 11g, N-(2,3-dihydro-1H-inden-2-yl)-2-(thiophen-3-yl)quinazolin-4-amine]
IC50 (wild-type GCase [1]; pH 5.0, mean ± SD, read-out: IC50 pH 5.0): 8.9 ± 1.3 nM
decrease of inhibitory activity at pH 5.0 compared to pH 5.9 (wild-type GCase [1]; pH 5.0 vs pH 5.9): only dropped slightly
IC50 (wild-type GCase [1]; pH 5.9, mean ± SD, read-out: IC50 pH 5.9): 5.2 ± 0.6 nM
IC50 (wild-type GCase [1]; pH 7.0, mean ± SD, read-out: IC50 pH 7.0): 6.6 ± 1 nM
activity of acid α-glucosidase on compound treatment (acid α-glucosidase (GAA)): not significantly changed
maximum thermal shift (wild-type GCase [2]; pH 5.0): around 11 °C
stabilization of GCase (melting point change) (wild-type GCase [2]; pH 5.0, in words): stabilize wild-type GCase in a dose-dependent manner; also recorded: increased the GCase melting point in a dose-dependent manner
concentration of GCase protein [3]: significantly increased the concentration of GCase
activity of α-galactosidase A on compound treatment (α-galactosidase A (GLA)): not significantly changed
GCase activity in patient cells [4]: increased GCase activity
type of inhibition (Lineweaver-Burk) (GCase): linear mixed inhibition
